Reference: patent US10336697B2, “Spiro[cyclobutane-1,3′-indolin]-2′-one derivatives as bromodomain inhibitors” (Orion Corporation, priority 2015, dated 2019)

biological target: Bet BRD4 full length bromo-domain protein (Homo sapiens, UniProt O60885); assay: Bet bromodomain TR-FRET assay (displacement of acetyl histone peptide); type: binding; settings: Bet BRD4 full length bromodomain protein, 300 nM acetyl histone peptide substrate, read-out: IC50

Compared with `O=C(Nc1cc(C2CC2)c2c(c1)C1(CCC1)C(=O)N2)c1ccc(F)cc1` [Compound 75a, N-(7′-Cyclopropyl-2′-oxospiro[cyclobutane-1,3′-indolin]-5′-yl)-4-fluorobenzamide], `COc1ccc(S(=O)(=O)Nc2cc(C3CCN(C)CC3)c3c(c2)C2(CCC2)C(=O)N3)c(F)c1` [Compound 98, 2-Fluoro-4-methoxy-N-(7′-(1-methylpiperidin-4-yl)-2′-oxospiro-[cyclobutane-1,3′-indolin]-5′-yl)benzenesulfonamide] is lower in IC50: 600 to 1000 nM for the first, less than 600 nM for the second. The second is the more potent here.

`CN1CCC(Oc2cc(NS(=O)(=O)c3ccccc3F)cc3c2NC(=O)C32CCC2)CC1` [compound 128] and `CN1CCC(Oc2cc(NS(=O)(=O)c3ccc(F)cc3Br)cc3c2NC(=O)C32CCC2)CC1` [Compound 132, 2-Bromo-4-fluoro-N-(7′-((1-methylpiperidin-4-yl)oxy)-2′-oxospiro[cyclobutane-1,3′-indolin]-5′-yl)benzenesulfonamide] cannot be ordered by IC50: less than 600 nM for the first, less than 600 nM for the second.

First: CN1CCC(N(C)C(=O)c2cc(NS(=O)(=O)c3ccc(F)cc3F)cc3c2NC(=O)C32CCC2)CC1 [Compound 53, 5′-(2,4-Difluorophenylsulfonamido)-N-methyl-N-(1-methylpiperidin-4-yl)-2′-oxospiro[cyclobutane-1,3′-indoline]-7′-carboxamide]
Second: CN1CCC(Nc2cc(NS(=O)(=O)c3ccc(F)cc3F)cc3c2NC(=O)C32CCC2)CC1 [Compound 17, 2,4-Difluoro-N-(7′-((1-methylpiperidin-4-yl)amino)-2′-oxospiro[cyclobutane-1,3′-indolin]-5′-yl)benzenesulfonamide]
The IC50 of the first is higher: greater than 1000 nM for the first, less than 600 nM for the second.

`COc1ccccc1S(=O)(=O)Nc1cc(OC2CCC(O)CC2)c2c(c1)C1(CCC1)C(=O)N2` (stereo not drawn) [Compound-208, N-(7′-((4-Hydroxycyclohexyl)oxy)-2′-oxospiro[cyclobutane-1,3′-indolin]-5′-yl)-2-methoxybenzenesulfonamide] and `COc1ccccc1S(=O)(=O)Nc1cc(OC2CCNCC2)c2c(c1)C1(CCC1)C(=O)N2` [compound 199, 2-Methoxy-N-(2′-oxo-7′-(piperidin-4-yloxy)spiro[cyclobutane-1,3′-indolin]-5′-yl)benzenesulfonamide] cannot be ordered by IC50: less than 600 nM for the first, less than 600 nM for the second.

`COc1ccccc1S(=O)(=O)Nc1cc(OC2CCS(=O)(=O)CC2)c2c(c1)C1(CCC1)C(=O)N2` [Compound 143, N-(7′-((1,1-dioxidotetrahydro-2H-thiopyran-4-yl)oxy)-2′-oxospiro[cyclobutane-1,3′-indolin]-5′-yl)-2-methoxybenzenesulfonamide] and `O=C1Nc2c(OC3CCS(=O)(=O)CC3)cc(NS(=O)(=O)c3ccc(Cl)cc3F)cc2C12CCC2` [Compound 144, 4-Chloro-N-(7′-((1,1-dioxidotetrahydro-2H-thiopyran-4-yl)oxy)-2′-oxospiro[cyclobutane-1,3′-indolin]-5′-yl)-2-fluorobenzenesulfonamide] cannot be ordered by IC50: less than 600 nM for the first, less than 600 nM for the second.

`O=C1Nc2c(-c3ccc(O)nc3)cc(NS(=O)(=O)c3ccc(F)cc3F)cc2C12CCC2` [Compound 99, 2,4-Difluoro-N-(7′-(6-hydroxypyridin-3-yl)-2′-oxospiro [cyclobutane-1,3′-indolin]-5′-yl)benzenesulfonamide] and `O=C1Nc2c(-c3ccc4cn[nH]c4c3)cc(NS(=O)(=O)c3ccc(F)cc3F)cc2C12CCC2` [Compound 7, N-(7′-(1H-indazol-6-yl)-2′-oxospiro[cyclobutane-1,3′-indolin]-5′-yl)-2,4-difluorobenzenesulfonamide] fall in the same range of IC50: 600 to 1000 nM for the first, 600 to 1000 nM for the second.

`CCC(=O)N1CCC(Nc2cc(NS(=O)(=O)c3ccc(F)cc3F)cc3c2NC(=O)C32CCC2)CC1` [Compound 21, 2,4-Difluoro-N-(2′-oxo-7′-((1-propionylpiperidin-4-yl)amino)spiro[cyclobutane-1,3′-indolin]-5′-yl)benzenesulfonamide] and `CN1CCC(NC(=O)c2cc(NS(=O)(=O)c3cc(F)ccc3F)cc3c2NC(=O)C32CCC2)CC1` [Compound 86, 5′-(2,5-Difluorophenylsulfonamido)-N-(1-methylpiperidin-4-yl)-2′-oxospiro[cyclobutane-1,3′-indoline]-7′-carboxamide] cannot be ordered by IC50: less than 600 nM for the first, less than 600 nM for the second.

`Cn1cnc2ccc(-c3cc(NS(=O)(=O)c4ccc(F)cc4F)cc4c3NC(=O)C43CCC3)cc21` [Compound 5, 2,4-Difluoro-N-(7′-(1-methyl-1H-benzo[d]imidazol-6-yl)-2′-oxospiro[cyclobutane-1,3′-indolin]-5′-yl)benzene sulphonamide] and `CN1CCc2ccc(-c3cc(NS(=O)(=O)c4ccc(F)cc4F)cc4c3NC(=O)C43CCC3)cc2C1` [Compound 106, 2,4-Difluoro-N-(7′-(2-methyl-1,2,3,4-tetrahydroisoquinolin-7-yl)-2′-oxospiro[cyclobutane-1,3′-indolin]-5′-yl)benzenesulfonamide] cannot be ordered by IC50: less than 600 nM for the first, less than 600 nM for the second.

`COc1ccccc1S(=O)(=O)Nc1cc(OCCN(C)C)c2c(c1)C1(CCC1)C(=O)N2` [Compound 162, N-(7′-(2-(dimethylamino)ethoxy)-2′-oxospiro[cyclobutane-1,3′-indolin]-5′-yl)-2-methoxybenzenesulfonamide] and `COc1ccccc1S(=O)(=O)Nc1cc(OCCNC2CC2)c2c(c1)C1(CCC1)C(=O)N2` [compound 206, N-(7′-(2-(cyclopropylamino)ethoxy)-2′-oxospiro[cyclobutane-1,3′-indolin]-5′-yl)-2-methoxybenzenesulfonamide] cannot be ordered by IC50: less than 600 nM for the first, less than 600 nM for the second.

Compared with `CN1CCC(NC(=O)c2cc(NS(=O)(=O)N3CCCCC3)cc3c2NC(=O)C32CCC2)CC1` [Compound 85, N-(1-methylpiperidin-4-yl)-2′-oxo-5′-(piperidine-1-sulfon amido)spiro[cyclobutane-1,3′-indoline]-7′-carboxamide], `CN1CCCC(NC(=O)c2cc(NS(=O)(=O)c3ccc(F)cc3F)cc3c2NC(=O)C32CCC2)C1` (stereo not drawn) [Compound 58, 5′-(2,4-Difluorophenylsulfonamido)-N-(1-methylpiperidin-3-yl)-2′-oxospiro[cyclobutane-1,3′-indoline]-7′-carboxamide] is lower in IC50: greater than 1000 nM for the first, less than 600 nM for the second. The second is the more potent here.

`COc1ccccc1S(=O)(=O)Nc1cc(OC2CCN(CCO)CC2)c2c(c1)C1(CCC1)C(=O)N2` [Compound-209, N-(7′-((1-(2-hydroxyethyl)piperidin-4-yl)oxy)-2′-oxospiro[cyclobutane-1,3′-indolin]-5′-yl)-2-methoxybenzenesulfonamide] and `COc1cc(F)ccc1S(=O)(=O)Nc1cc(OC2CCN(C)CC2)c2c(c1)C1(CCC1)C(=O)N2` [Compound-189, 4-Fluoro-2-methoxy-N-(7′-((1-methylpiperidin-4-yl)oxy)-2′-oxospiro[cyclobutane-1.3′-indolin]-5′-yl)benzenesulfonamide] cannot be ordered by IC50: less than 600 nM for the first, less than 600 nM for the second.

Compared with `COc1ccccc1S(=O)(=O)Nc1cc(OC2CCN(C)CC2)c2c(c1Br)C1(CCC1)C(=O)N2` [compound 216, N-(4′-bromo-7′-((1-methylpiperidin-4-yl)oxy)-2′-oxospiro[cyclobutane-1,3′-indolin]-5′-yl)-2-methoxybenzenesulfonamide], `CN1CCC(Oc2cc(NS(=O)(=O)c3ccc(F)cc3Cl)cc3c2NC(=O)C32CCC2)CC1` [Compound 134, 2-Chloro-4-fluoro-N-(7′-((1-methylpiperidin-4-yl)oxy)-2′-oxospiro[cyclobutane-1,3′-indolin]-5′-yl)benzenesulfonamide] is lower in IC50: greater than 1000 nM for the first, less than 600 nM for the second.

Compared with `COc1ccccc1S(=O)(=O)Nc1cc(OC(C)c2ccccn2)c2c(c1)C1(CCC1)C(=O)N2` (single isomer, unassigned) [Compound 150, 2-Methoxy-N-(2′-oxo-7′-(1-(pyridin-2-yl)ethoxy)spiro[cyclobutane-1,3′-indolin]-5′-yl)benzenesulfonamide], `COc1ccccc1S(=O)(=O)Nc1cc(Cc2ccccc2F)c2c(c1)C1(CCC1)C(=O)N2` [Compound 9, N-(7′-(2-fluorobenzyl)-2′-oxospiro[cyclobutane-1,3′-indolin]-5′-yl)-2-methoxybenzenesulfonamide] is lower in IC50: 600 to 1000 nM for the first, less than 600 nM for the second.

`COc1ccccc1S(=O)(=O)Nc1cc(NCC2CC2)c2c(c1)C1(CCC1)C(=O)N2` [Compound 13, N-(7′-((cyclopropylmethyl)amino)-2′-oxospiro[cyclobutane-1,3′-indolin]-5′-yl)-2-methoxybenzenesulfonamide] and `C=C(c1nccs1)c1cc(NS(=O)(=O)c2ccccc2OC)cc2c1NC(=O)C21CCC1` [Compound 172, 2-Methoxy-N-(2′-oxo-7′-(1-(thiazol-2-yl)vinyl)spiro[cyclobutane-1,3′-indolin]-5′-yl)benzenesulfonamide] cannot be ordered by IC50: less than 600 nM for the first, less than 600 nM for the second.

`O=C1Nc2c(OC3CCCNC3)cc(NS(=O)(=O)c3ccc(Cl)cc3F)cc2C12CCC2` (stereo not drawn) [compound 200, 4-Chloro-2-fluoro-N-(2′-oxo-7′-(piperidin-3-yloxy)spiro[cyclobutane-1,3′-indolin]-5′-yl)benzenesulfonamide] and `O=C1Nc2c(OCC3CNCCO3)cc(NS(=O)(=O)c3ccc(Cl)cc3F)cc2C12CCC2` (stereo not drawn) [compound 202, 4-Chloro-2-fluoro-N-(7′-(morpholin-2-ylmethoxy)-2′-oxospiro[cyclobutane-1,3′-indolin]-5′-yl)benzenesulfonamide] cannot be ordered by IC50: less than 600 nM for the first, less than 600 nM for the second.

Compared with `O=C1Nc2c(-c3ccc4c(c3)CNCC4)cc(NS(=O)(=O)c3ccc(F)cc3F)cc2C12CCC2` [Compound 88, 2,4-Difluoro-N-(2′-oxo-7′-(1,2,3,4-tetrahydroisoquinolin-7-yl)spiro-[cyclobutane-1,3′-indolin]-5′-yl)benzenesulfonamide], `O=C(Nc1ccccn1)c1cc(NS(=O)(=O)c2ccc(F)cc2F)cc2c1NC(=O)C21CCC1` [Compound 49, 5′-(2,4-Difluorophenylsulfonamido)-2′-oxo-N-(pyridin-2-yl)spiro[cyclobutane-1,3′-indoline]-7′-carboxamide] is higher in IC50: less than 600 nM for the first, 600 to 1000 nM for the second.

`COc1ccccc1S(C)(=O)=Nc1cc([N+](=O)[O-])c2c(c1)C1(CCC1)C(=O)N2` (stereo not drawn) [Compound-181, 5′-(((2-Methoxyphenyl)(methyl)(oxo)-l6-sulfanylidene)amino)-7′-nitrospiro[cyclobutane-1,3′-indolin]-2′-one] was tested, and the IC50 was greater than 1000 nM.
